Source: PMC9465178, “Cinnamaldehyde derivatives act as antimicrobial agents against Acinetobacter baumannii through the inhibition of cell division” (Frontiers in Microbiology, 2022)
In brackets after ≈: the same amount, converted by molar mass. Entries after “also recorded” stand apart in the source; their conditions may differ.

How the values were obtained:
A. baumannii ATCC 19606 [1] = assay: MIC, microbroth dilution (EUCAST); assay type: cell-based, Acinetobacter baumannii; conditions: Acinetobacter baumannii, ATCC19606, 18 h
Procedure: (§1) Reference bacterial strains were obtained from the American Type Culture Collection (ATCC). Vancomycin resistant Enterococcus faecium (VRE 734, wastewater isolate from the Venter Laboratory Collection) was isolated on Bile Esculin agar (Oxoid, Australia) containing 6 μg/mL vancomycin and identified using MALDI-TOF mass spectrometry (Bruker, Preston, Victoria, Australia, Australian Center for Antimicrobial Resistance Ecology). The Pseudomonas aeruginosa WT PAO1 and Escherichia coli with deletions of both acrA and acrB genes encoding drug efflux pumps were obtained from the Venter laboratory stock ([Welch et al., 2010]). The protocol for microbial growth was adopted from the European Committee on Antimicrobial Susceptibility Testing (EUCAST) ([European Committee for Antimicrobial Susceptibility Testing, 2016]).
(§2) Non-fastidious bacteria and clinical isolates were maintained in Mueller Hinton (MH) broth (Acumedia, United Kingdom) supplemented with 15% (v/v) glycerol (Chem-Supply, Australia), cultured on Mueller Hinton (MH) agar (Acumedia, United Kingdom) plated and incubated at 37°C. Fastidious bacteria were maintained in Brain Heart Infusion (BHI) broth (Acumedia, United Kingdom) supplemented with 15% (v/v) glycerol at −80°C. The fastidious bacteria were cultured on MH agar plates supplemented with 5% (v/v) lysed horse blood and 3% (v/v) fetal bovine serum and incubated at 30°C in the presence of 5% CO2. Drug susceptibility assays were carried out with the non-fastidious cultures grown in cation-adjusted Mueller Hinton (CaMH) broth (Becton Dickinson, France). Streptococcus pyogenes was grown in CaMH broth supplemented with 5% (v/v) lysed horse blood and 3% (v/v) fetal bovine serum whereas Enterococcus faecium was grown in BHI broth.
(§3) The minimum inhibitory concentrations (MICs) for all six compounds were determined using the microbroth dilution protocol as per EUCAST with an inoculum of approximately […] in an exponential growth phase ([European Committee for Antimicrobial Susceptibility Testing, 2016]). Bacterial suspension, 100 μL/well, was added to 100 μL/well of drug dilutions, then incubated for 18 h at 37°C. Fastidious bacterial suspensions were instead incubated at 30°C in the presence of 5% CO2. Bacterial growth was assessed by measuring the change in A600 nm between time 0 and 18 h (Cytation5® Cell Imaging Multi-Mode Reader, Bio-Tek®). Levofloxacin was used as the positive control. Assays were completed in duplicate in at least three independent experiments.

A. baumannii XDR UW 5075 [2] = assay: MIC, microbroth dilution (EUCAST); assay type: cell-based, Acinetobacter baumannii; conditions: Acinetobacter baumannii, XDRUW5075, 18 h
Procedure: as §1, §2, §3

A. baumannii ATCC 19606 [3] = assay: Checkerboard titration MIC with efflux pump inhibitor PAβN; assay type: cell-based; conditions: Acinetobacter baumannii, ATCC19606, A. baumannii ATCC 19606
Procedure: (§4) To determine if expression of efflux pumps would play a role in the efflux of the cinnamaldehyde derivatives leading to poor antimicrobial activity, interactions between PAβN and the LXC compounds were assessed by checkerboard titration assay. The checkerboard titration assay was performed as previously described ([Chai et al., 2020]). Briefly, PAβN was added in the first row and serially diluted in CaMH broth along the ordinate of the microwell plate while the LXC compounds were serially diluted along the abscissa. Bacterial suspension for A. baumannii ATCC 19606 or AB UW 5075 100 μL/well were added as described for the MIC assay. Bacterial growth was assessed at A600 nm between time 0 and 18 h (Cytation5® Cell Imaging Multi-Mode Reader, Bio-Tek®).

A. baumannii XDR UW 5075 [4] = assay: as above; assay type: cell-based, Acinetobacter baumannii; conditions: for MIC in combination with PAβN: PAβN concentration not given in the sentence
Procedure: as §4

[5] = test system: Methicillin resistant Staphylococcus aureus; assay: Antibacterial activity (MIC), microbroth dilution; assay type: cell-based; conditions: Staphylococcus aureus, ATCC 43300 / MRSA, read-out: Antibacterial activity (MIC)
Procedure: as §1, §2, §3

mammalian tubulin = target: T1, mammalian tubulin (Sus scrofa, UniProt P02550+P02554); assay: Mammalian tubulin polymerization assay kit; assay type: biochemical, porcine; conditions: compounds at 1 × MIC, 1 mM GTP, 37°C
T1 construct: purchased Cytoskeleton Inc. BK011P
Procedure: The effects of the cinnamaldehyde analogs were analyzed for off-target effects on mammalian tubulin using the protocol as previously described ([Chai et al., 2020]), using a Tubulin Polymerization Assay Kit (Cytoskeleton Inc., BK011P, Denver, CO, United States), following the protocol described by the manufacturer.
Controls included 20 μM paclitaxel (promoter of polymerization), 20 μM vinblastine (inhibitor of polymerization) and 2.5% (v/v) DMSO (solvent control). The reaction was initiated by the addition of 1 mM GTP at 37°C. The fluorescence was read for 2,000 s using PerkinElmer Enspire® plate reader.
FIGURE 7 The effect of the LXC compounds on the polymerization of mammalian tubulin. (A–F) The polymerizing activity of the LXC compounds on porcine tubulin was assessed using a commercial Tubulin Polymerization Assay Kit. The LXC compounds at 1 × MIC were pre-incubated with tubulin on ice before the reaction was initiated by the addition of 1 mM GTP. The fluorescence was measured as a function of time at A360 and A420 nm excitation and emission wavelengths, respectively, at the constant temperature of 37°C. DMSO 2.5% (v/v) (brown curves) was used as vehicle control while paclitaxel (polymerization stabilizer; blue curves) and vinblastine (polymerization inhibitor; green curves) at 20 μM each were also included as controls.

[6] = test system: HepG2 (ATCC HB-8065) cells; assay: RealTime-Glo MT cell viability assay; assay type: cell-based; conditions: 24 h
Procedure: The effects of the cinnamaldehyde analogs were analyzed for off-target effects on mammalian cells using the protocol as previously described ([Chai et al., 2020]) with the following modifications. In vitro cytotoxicity was assessed in HepG2 (ATCC HB-8065) cells using the RealTime-Glo™ MT Cell Viability Assay Kit (Promega) as described previously ([Wang et al., 2017]). The LXC compounds were tested at 1 × and 2 × MIC using a final DMSO concentration of 2% (v/v) in the assay. […] The luminescence signal was read at 5-min intervals over 24 h in a Cytation5® Cell Imaging Multi-Mode Reader (Bio-Tek®), at 37°C in the presence of 5% CO2.
FIGURE 8 The LXC compounds are generally non-toxic at a concentration of 1 × MIC. (A–F) Real-time liver cell viability measurements for HepG2 after treatment with 1 × (pink line) and 2 × (brown line) MIC values. […] Cell viability was measured every 5 min for 24 h at 37°C and 5% CO2 on a Cytation5® Cell Imaging Multi-Mode Reader using the RealTime-Glo™ MT Cell Viability Assay reagent. The results are presented in mean ± SEM (hourly SEM data was presented).

[7] = A. baumannii XDR UW 5075, +PAβN 50 μg/mL
[8] = Acinetobacter baumannii, XDRUW5075
[9] = Acinetobacter baumannii, XDRUW5075, A. baumannii XDR UW 5075, +PAβN 100 μg/mL, read-out: MIC
[10] = Acinetobacter baumannii, XDRUW5075, A. baumannii XDR UW 5075, +PAβN 200 μg/mL, read-out: MIC

T1 sequence (P02550 whole entry): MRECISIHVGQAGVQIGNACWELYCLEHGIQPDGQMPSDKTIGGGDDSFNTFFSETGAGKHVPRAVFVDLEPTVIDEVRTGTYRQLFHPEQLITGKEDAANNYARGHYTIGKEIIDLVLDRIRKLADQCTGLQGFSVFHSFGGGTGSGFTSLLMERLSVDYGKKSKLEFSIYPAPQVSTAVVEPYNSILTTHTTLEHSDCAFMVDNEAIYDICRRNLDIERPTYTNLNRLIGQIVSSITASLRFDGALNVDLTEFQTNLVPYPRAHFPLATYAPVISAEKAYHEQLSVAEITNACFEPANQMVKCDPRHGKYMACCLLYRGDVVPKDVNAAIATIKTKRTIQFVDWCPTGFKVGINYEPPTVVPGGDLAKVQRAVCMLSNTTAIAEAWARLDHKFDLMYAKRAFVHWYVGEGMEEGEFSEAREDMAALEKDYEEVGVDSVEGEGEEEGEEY
T1 sequence (P02554 whole entry): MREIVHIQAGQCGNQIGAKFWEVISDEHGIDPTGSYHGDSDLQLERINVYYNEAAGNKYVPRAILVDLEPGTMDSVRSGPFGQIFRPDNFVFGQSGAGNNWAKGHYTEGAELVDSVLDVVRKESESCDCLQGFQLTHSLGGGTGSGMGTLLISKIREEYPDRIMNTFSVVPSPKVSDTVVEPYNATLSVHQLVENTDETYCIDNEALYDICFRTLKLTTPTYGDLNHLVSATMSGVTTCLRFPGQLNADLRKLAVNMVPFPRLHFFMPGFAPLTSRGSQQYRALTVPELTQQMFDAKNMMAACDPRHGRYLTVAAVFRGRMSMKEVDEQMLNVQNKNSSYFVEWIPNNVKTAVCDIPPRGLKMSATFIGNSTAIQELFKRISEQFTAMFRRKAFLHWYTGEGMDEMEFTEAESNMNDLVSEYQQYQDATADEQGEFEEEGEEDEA

Row | Compound | MIC (A. baumannii ATCC 19606 [1]) [µg/mL] | MIC (A. baumannii XDR UW 5075 [2]) [µg/mL] | MIC (A. baumannii ATCC 19606 [3]; +PAβN 0 μg/mL) [µg/mL] | MIC (A. baumannii ATCC 19606 [3]; +PAβN 50 μg/mL) [µg/mL] | MIC (A. baumannii ATCC 19606 [3]; +PAβN 100 μg/mL) [µg/mL] | MIC (A. baumannii ATCC 19606 [3]; +PAβN 200 μg/mL) [µg/mL] | MIC (A. baumannii XDR UW 5075 [4]; [7]) [µg/mL] | MIC (A. baumannii XDR UW 5075 [4]; [8]) [µg/mL] | MIC (A. baumannii XDR UW 5075 [4]; [9]) [µg/mL] | MIC (A. baumannii XDR UW 5075 [4]; [10]) [µg/mL] | MIC [5] [µg/mL] | Effect on tubulin polymerization (mammalian tubulin) | Cytotoxicity, HepG2 cell viability ([6]; 2 × MIC) | MIC in combination with PAβN (A. baumannii XDR UW 5075 [4]; A. baumannii XDR UW 5075) [µg/mL] | Cytotoxicity, HepG2 cell viability ([6]; 1 × MIC)
1 | Cc1nc2ccccc2n1C(=O)/C=C/c1ccc(Cl)cc1 [Compound 3] | 128 (≈ 431 µM) | > 128 | 128 | 128 | 8 | 8 | >128 | > 128 | 128 | 64 | > 256 | undesirable inhibitory activity | cytotoxicity was also observed | – | –
2 | Cc1nc2ccccc2n1C(=O)/C=C/c1ccc(Br)cc1 [Compound 4] | 32 (≈ 93.8 µM) | > 128 | 32 | 32 | 8 | 8 | >128 | > 128 | 128 | 64 | > 256 | undesirable inhibitory activity against tubulin | devoid of undesirable toxicity | – | –
3 | Cc1nc2ccccc2n1C(=O)/C=C/c1ccc(F)cc1 [Compound 2] | 128 (≈ 457 µM) | > 128 | 128 | 128 | 32 | 16 | >128 | > 128 | 64 | 64 | > 256 | devoid of tubulin polymerization activity | cytotoxicity was also observed | – | –
4 | Cc1nc2ccccc2n1C(=O)/C=C/c1ccc(Cl)cc1Cl [Compound 6] | 64 (≈ 193 µM) | > 128 | 64 | 32 | 16 | 8 | >128 | > 128 | 32 | 32 | 64 (≈ 193 µM) | devoid of tubulin polymerization activity; also recorded: lack of activity against the tubulin counter-target | devoid of hemolytic activity and cytotoxicity against mammalian cells in vitro; also recorded: devoid of undesirable toxicity | 32 | –
5 | Cc1nc2ccccc2n1C(=O)/C=C/c1ccccc1 [Compound 1] | 128 (≈ 488 µM) | > 128 | 128 | 128 | 64 | 32 | >128 | > 128 | 128 | 64 | 256 (≈ 976 µM) | undesirable inhibitory activity | cytotoxicity was also observed | – | –
6 | COc1ccc(/C=C/C(=O)n2c(C)nc3ccccc32)cc1OC [Compound 5] | 256 (≈ 794 µM) | > 128 | 256 | 128 | 8 | 8 | >128 | > 128 | 64 | 32 | > 256 | devoid of tubulin polymerization activity | – | 32 | displayed cytotoxicity
